Laboratory results published in patent US8030043B2, “β-galactoside-α2,3-sialyltransferase, a gene encoding thereof, and a method for producing thereof” (Japan Tobacco Inc., priority 2005, dated 2011).

Tests used:
[1] = test system: ISH224-N1C0 recombinant β-galactoside-α2,3-sialyltransferase; assay: Acceptor substrate specificity of recombinant β-galactoside-α2,3-sialyltransferase (mono-, di-, trisaccharides); format: biochemical, Photobacterium sp.
Text: (§1) Cell homogenates prepared from E. coli cells introduced with the third clone of ISH467-N2C0, the first clone of ISH224-N1C0 and the first clone of FAJ-N1C0 were each purified by ion exchange chromatography and hydroxyapatite chromatography to give an electrophoretically single band. The thus purified β-galactoside-α2,3-sialyltransferases were used in the following experiment in order to examine the presence or absence of sialyltransferase activity toward various monosaccharides, disaccharides and trisaccharides.
(§2) A reaction solution (24 μl) was prepared to contain CMP-^14C-NeuAc-containing CMP-NeuAc as a glycosyl donor substrate ([…], final concentration in the reaction solution: […]), any of various glycosyl acceptor substrates dissolved in 20 mM cacodylate buffer (pH 5.0) (1 μmol, final concentration in the reaction solution: 42 mM), sialyltransferase (in an amount as indicated in the footnotes of the tables below) and NaCl (final concentration in the reaction solution: 500 mM), and reacted under conditions as indicated in the footnotes of the tables below. The monosaccharides used as glycosyl acceptor substrates were the following 10 types: methyl-α-D-galactopyranoside (Gal-α-OMe), methyl-(β-D-galactopyranoside (Gal-β-OMe), methyl-α-D-glucopyranoside (Glc-α-OMe), methyl-β-D-glucopyranoside (Glc-β-OMe), methyl-α-D-mannopyranoside (Man-α-OMe), methyl-β-D-mannopyranoside (Man-β-OMe), methyl-α-D-fucopyranoside (Fuc-α-OMe), methyl-β-D-fucopyranoside (Fuc-β-OMe), N-acetylgalactosamine (GalNAc), and N-acetylglucosamine ([…]). The disaccharides used were the following 5 types: lactose (Gal-β1,4-Glc), N-acetyllactosamine (Gal-β1,4-GlcNAc), methyl-β-D-galactopyranosyl-β1,3-N-acetylglucosaminide (Gal-β1,3-GlcNAc-β-OMe), methyl-α-D-galactopyranosyl-α1,3-galactopyranoside (Gal-α-1,3-Gal-α-OMe), and methyl-β-D-galactopyranosyl-β1,3-galactopyranoside (Gal-β1,3-Gal-β-OMe). The trisaccharide used was 2′-fucosyllactose (Fuc-α1,2-Galβ1,4-Glc). It should be noted that the final concentration was set to 8.4 mM for the sugar chains shown in Table 18, i.e., methyl-α-D-galactopyranosyl-α1,3-galactopyranoside (Gal-α1,3-Gal-α-OMe), methyl-β-D-galactopyranosyl-β1,3-galactopyranoside (Gal-β1,3-Gal-β-OMe) and 2′-fucosyllactose (Fuc-α1,2-Gal-β1,4-Glc).
(§3) After completion of the enzymatic reaction, 1.98 ml of 5 mM phosphate buffer (pH 6.8) was added to the reaction solution to stop the enzymatic reaction. Then, the enzymatic reaction solution was diluted with 5 mM phosphate buffer (pH 6.8) and applied in a volume of 2 ml to a AG1−×2 Resin (PO4^3− form, 0.2×2 cm) column. This column was prepared as follows: AG1-x 2 Resin (OH^− form, BIO-RAD) was suspended in 1 M phosphate buffer (pH 6.8), and after 30 minutes, the resin was washed with distilled water and then suspended in distilled water. The eluate (0 to 2 ml) from this column was measured for its radioactivity. The eluate from this column contains the unreacted glycosyl acceptor substrate and the ^14C-NeuAc (N-acetylneuraminic acid)-bound reaction product which was generated by the reaction, but unreacted CMP-14C-NeuAc is still retained on the column. Thus, the radioactivity of ^14C from each sialic acid-containing sugar chain generated as a result of the enzymatic reaction arises exclusively from the reaction product, so that the radioactivity of this fraction can be used to calculate the enzyme activity.
(§4) In the manner described above, the radioactivity of NeuAc transferred to each glycosyl acceptor substrate was measured to calculate the amount of transferred sialic acid.

[2] = test system: ISH467-N2C0 recombinant β-galactoside-α2,3-sialyltransferase; assay: as above; format: biochemical, Photobacterium phosphoreum
Text: as §1, §2, §3, §4

[3] = test system: FAJ-N1C0 recombinant β-galactoside-α2,3-sialyltransferase; assay: Acceptor substrate specificity of recombinant β-galactoside-α2,3-sialyltransferase (mono-, disaccharides); format: biochemical, Vibrio sp.; parameters: FAJ-N1C0 Sialyltransferase activity Relative activity (%): tested at 42 mM; conditions: 20° C., 14 hours; for FAJ-N1C0 Sialyltransferase activity: Table 16: 1 μmol acceptor, pH 5.0, about 2.5 mU enzyme; for FAJ-N1C0 Sialyltransferase activity Relative activity (%): Table 16: activity toward lactose set to 100
Text: as §1, §2, §3, §4

[4] = test system: α2,3-sialyltransferase derived from strain JT-ISH-467; assay: Sialic acid transfer to monosaccharides and disaccharides by partially purified α2,3-sialyltransferase (CMP-14C-NeuAc donor, radioactivity of column eluate); format: biochemical, Photobacterium phosphoreum; conditions: 25° C., 4 hours; acceptor 10 μmol (200 mM); CMP-14C-NeuAc 400 nmol; sialyltransferase 0.13 mU; NaCl 500 mM
Experimental: A cell homogenate prepared from the strain JT-ISH-467 was partially purified by ion exchange chromatography, hydroxyapatite chromatography, and gel filtration chromatography. The thus partially purified α2,3-sialyltransferase was used in the following experiment in order to confirm the transfer of sialic acid to various monosaccharides and disaccharides.
The enzymatic reaction was carried out at 25° C. for 4 hours in a reaction solution (24 μl) prepared to contain CMP-^14C-NeuAc as a glycosyl donor substrate (400 nmol (15600 cpm), final concentration in the reaction solution: 16.6 mM), any of various glycosyl acceptor substrates (10 μmol, final concentration in the reaction solution: 200 mM), sialyltransferase (0.13 mU) and NaCl (final concentration in the reaction solution: 500 mM). The monosaccharides and disaccharides used as glycosyl acceptor substrates were the following 6 substances: methyl-α-D-galactopyranoside (Gal-α-OMe), methyl-β-D-galactopyranoside (Gal-β-OMe), N-acetylgalactosamine (GalNAc), lactose (Gal-β1,4-Glc), N-acetyllactosamine (Gal-β1,4-GlcNAc), and methyl-β-D-galactopyranosyl-β-1,3-N-acetylglucosaminide (Gal-β1,3-GlcNAc-β-OMe).
as §3, with “AG1-×2” for “AG1−×2”, “AG1-×2” for “AG1-x 2”, “CMP-^14C-NeuAc” for “CMP-14C-NeuAc”
as §4

[5] = Table 16: 1 μmol acceptor, pH 5.0, about 2.5 mU enzyme, 20° C., 14 hours
[6] = Table 16: activity toward lactose set to 100, 20° C., 14 hours
[7] = Table 17: 1 μmol acceptor, pH 5.0, 1.0 mU per reaction, 30° C., 0.5 minutes or 2 minutes
[8] = Table 17: activity toward lactose set to 100, 30° C., 0.5 minutes or 2 minutes
[9] = Table 17: 1 μmol acceptor, pH 5.0, 2.3 mU per reaction, 30° C., 0.5 minutes or 2 minutes
[10] = Table 18: 0.2 μmol acceptor (8.4 mM), pH 5.0, 1.0 mU per reaction, 30° C., 2 minutes
[11] = Table 18: activity toward lactose set to 100, 0.2 μmol acceptor, 30° C., 2 minutes
[12] = Table 18: 0.2 μmol acceptor (8.4 mM), pH 5.0, 23 mU per reaction, 30° C., 2 minutes

| Compound | ISH224-N1C0 Sialyltransferase activity [1, 5] | ISH224-N1C0 Sialyltransferase activity Relative activity (%) [1, 6] | ISH224-N1C0 Sialyltransferase activity [1, 7] | ISH224-N1C0 Sialyltransferase activity Relative activity (%) [1, 8] | ISH467-N2C0 Sialyltransferase activity [2, 5] | ISH467-N2C0 Sialyltransferase activity Relative activity (%) [2, 6] | ISH467-N2C0 Sialyltransferase activity [2, 9] | ISH467-N2C0 Sialyltransferase activity Relative activity (%) [2, 8] | FAJ-N1C0 Sialyltransferase activity [3] | FAJ-N1C0 Sialyltransferase activity Relative activity (%) [3] | ISH224-N1C0 Sialyltransferase activity [1, 10] | ISH224-N1C0 Sialyltransferase activity Relative activity (%) [1, 11] | ISH467-N2C0 Sialyltransferase activity [2, 12] | ISH467-N2C0 Sialyltransferase activity Relative activity (%) [2, 11] | Amount of transferred sialic acid [4] |
| --- | --- | --- | --- | --- | --- | --- | --- | --- | --- | --- | --- | --- | --- | --- | --- |
| CO[C@@H]1O[C@H](CO)[C@@H](O)[C@H](O)[C@H]1O [Methylβglucopyranoside, methyl-β-D-glucopyranoside] | 3.7 nmol/min | 43% | 0.27 nmol/min | 26% | 3.6 nmol/min | 46% | 0.76 nmol/min | 33% | 4.0 nmol/min | 52% |  |  |  |  |  |
| OC[C@H]1O[C@@H](O[C@H]2[C@H](O)[C@@H](O)C(O)O[C@@H]2CO)[C@H](O)[C@@H](O)[C@H]1O (stereo partly drawn) [Lactose, lactose] | 8.4 nmol/min | 100% | 1.03 nmol/min | 100% | 7.8 nmol/min | 100% | 2.29 nmol/min | 100% | 7.6 nmol/min | 100% | 1.51 nmol/min | 100% | 1.64 nmol/min | 100% | 57.9 nmol |
| CO[C@H]1O[C@H](CO)[C@@H](O)[C@H](O)[C@H]1O [Methylαglucopyranoside, methyl-α-D-glucopyranoside] | 4.3 nmol/min | 51% | 0.70 nmol/min | 68% | 6.2 nmol/min | 79% | 1.11 nmol/min | 48% | 4.7 nmol/min | 62% |  |  |  |  |  |
| CO[C@H]1O[C@H](CO)[C@@H](O)[C@H](O)[C@@H]1O [Methylαmannopyranoside, methyl-α-D-mannopyranoside] | 4.7 nmol/min | 56% | 1.11 nmol/min | 108% | 5.5 nmol/min | 71% | 1.38 nmol/min | 60% | 4.3 nmol/min | 57% |  |  |  |  |  |
| CO[C@@H]1O[C@H](CO)[C@@H](O)[C@H](O)[C@@H]1O [Methylβmannopyranoside, methyl-β-D-mannopyranoside] |  |  | 1.03 nmol/min | 100% |  |  | 1.45 nmol/min | 63% |  |  |  |  |  |  |  |
| CC(=O)N[C@H]1C(O)O[C@H](CO)[C@@H](O)[C@@H]1O (stereo partly drawn) [N-Acetylglucosamine, N-acetylglucosamine] | 5.7 nmol/min | 68% | 0.51 nmol/min | 50% | 5.0 nmol/min | 63% | 0.91 nmol/min | 40% | 4.2 nmol/min | 55% |  |  |  |  |  |
| CO[C@@H]1O[C@H](CO)[C@H](O)[C@H](O[C@@H]2O[C@H](CO)[C@H](O)[C@H](O)[C@H]2O)[C@H]1O [methyl-β-D-galactopyranosyl-β1,3-galactopyranoside] |  |  |  |  |  |  |  |  |  |  | 5.52 nmol/min | 331% | 5.17 nmol/min | 222% |  |
| CO[C@H]1O[C@H](CO)[C@H](O)[C@H](O[C@H]2O[C@H](CO)[C@H](O)[C@H](O)[C@H]2O)[C@H]1O [methyl-α-D-galactopyranosyl-α1,3-galactopyranoside] |  |  |  |  |  |  |  |  |  |  | 8.80 nmol/min | 528% | 7.17 nmol/min | 308% |  |
| CO[C@@H]1O[C@H](C)[C@H](O)[C@H](O)[C@H]1O [Methylβfucopyranoside, methyl-β-D-fucopyranoside] |  |  | 0.50 nmol/min | 48% |  |  | 0.97 nmol/min | 42% |  |  |  |  |  |  |  |
| CO[C@H]1O[C@H](C)[C@H](O)[C@H](O)[C@H]1O [Methylαfucopyranoside, methyl-α-D-fucopyranoside] |  |  | 0.70 nmol/min | 68% |  |  | 1.13 nmol/min | 49% |  |  |  |  |  |  |  |
